# Reference: patent US20080146555A1, “Uses of Kinase Inhibitors and Compositions Thereof” (GPC Biotech, Inc, priority 2004, published 2008)
# Counter-ions that a name gives are not always drawn. Like-named read-outs stand apart in the source and are kept apart here.
# What was measured:
# HT29/mit = assay: SRB cytotoxicity, mitoxanthrone resistant cells; assay type: cell-based, human
# Description: In these experiments, the P-glycoprotein expressing NCI-Adr resistant subline (Vickers et al., 1989. Mol Endocrinology 3 (1):157-164) was used. […] Briefly, cells were plated in 96 well dishes 24 hours prior to compound addition. Where noted, they were exposed to verapamil for 4 hours prior to compound addition and then throughout the treatment period (72 hours). The assay was terminated with the addition of cold TCA to a final concentration of 10% and the plates were incubated for one hour at 4° C. The plates were then washed 5 times with water and 100 μl of a Sulforhodamine B solution (4%) was added to each well. The plate was then incubated for 10 minutes at room temperature before removal of unbound dye by washing with 1% acetic acid. The bound dye was solubilized with 10 mM Trizma base and the absorbance read at OD570.
# The parental non-mutated cell line HT29 was used as a control.
# Z. Cytotoxicity was measured using the SRB assay according to Shekan et al. as described above in Example 1A.
# JNK3 = target: T1, JNK3 (Homo sapiens, UniProt P53779); assay: JNK3 kinase assay; assay type: biochemical
# T1 construct: purchased Upstate 14-501
# Description: • 1. 10× Reaction Buffer: 500 mM Tris-HCl pH 7.5, 1 mM EGTA, 1% 2-mercaptoethanol. • 2. Enzyme Dilution Buffer (EDB): 50 mM Tris-HCl pH 7.5, 0.1 mM EGTA, 0.1% 2-mercaptoethanol, 1 mg/ml BSA, 0.03% Brij-35. • 3. JNK3/SAPK1b, active: Dilute to 4-24 ng/μl with EDB. Use 2.5 μl per assay point. • 4. ATF2 (amino acids 19-96) (Catalog #12-367): Prepare a 1.08 mg/ml stock. Use 2.5 μl per assay point for a final concentration of 3 μM per assay point. • 5. [γ-^32P]ATP: Stock 1 mCi/100 μl (3000 Ci/mmol, obtained from PerkinElmer, Cat. # BLU002A). Make 10 μl aliquots (100 μCi/vial). Before starting the assay, dilute an aliquot to 1 μCi/μl with 90 μl of 75 mM MgCl2 and 500 μM cold ATP in 20 mM MOPS, pH 7.2, 25 mM β-glycerol phosphate, 5 mM EGTA, 1 mM sodium orthovanadate, 1 mM dithiothreitol.
# • 1. Add 2.5 μl of 10× Reaction Buffer per assay. • 2. Add 2.5 μl of ATF2 (amino acids 19-96). • 3. Add 2.5 μl (10-60 ng) JNK3/SAPK1b, active. • 4. Add 7.5 μl of sterile, distilled water. • 5. Add 10 μl of the diluted [γ-^32P]ATP mixture. • 6. Incubate for 10 minutes at 30° C. • 7. Transfer a 20 μl aliquot onto the center of a 2 cm×2 cm P81 paper. • 8. Wash the assay squares three times for 5 minutes with 0.75% phosphoric acid. • 9. Wash the assay squares once for 5 minutes with acetone. • 10. Transfer the assay squares to vial and add 5 ml scintillation cocktail. • 11. Read in scintillation counter. Compare cpm of enzyme samples to cpm of control samples that contain background control.
# cell cycle = assay: Cell cycle arrest; assay type: cell-based
# normal cells = assay: Activity on normal cells; assay type: cell-based
# Cdk1 = Cdk1 (Homo sapiens, UniProt P06493); assay: Cdk1 inhibition; assay type: biochemical
# Text: Further inhibition results for subject compounds of the invention against other CDKs and further kinases are shown in Table 5, Table II and described in Example 6.
# Table 3, Table 4, Table 5 and Table II show the results obtained for inhibition of a broad range of such kinases for subject compounds of the invention.
# Aqueous solubility = assay type: physicochemical; details: water (aqueous solution)
# Solution stability = assay type: physicochemical; details: pH6, room temperature, kept in dark
# Casein Kinase 1 (yeast) = target: T2, Casein Kinase 1 (yeast) (Schizosaccharomyces pombe, UniProt P40233); assay: CK1-Yeast kinase assay (A37 assay); assay type: biochemical, S. pombe
# T2 construct: purchased Upstate 14-112
# Description: • 1. Assay Dilution Buffer I (ADBI, Catalog #20-108): 20 mM MOPS, pH 7.2, 25 mM β-glycerol • phosphate, 5 mM EGTA, 1 mM sodium orthovanadate, 1 mM dithiothreitol. • 2. Casein Kinase 1, active: Dilute to 10-50 ng/μl. Use 10 μl (100-500 ng) per assay point. • 3. Casein Kinase 1 Substrate Peptide (Catalog #12-423): Prepare a 1 mM sock in ADBI. Use 10 μl per assay for a final concentration of 250 μM per assay point. • 4. [γ-^32P]ATP: Stock 1 mCi/100 μl (3000 Ci/mmol, obtained from Perkin Elmer, Cat. # BLU002A). Make 10 μl aliquots (100 μCi/vial). Before starting the assay, dilute an aliquot with 90 μl of 500 μM cold ATP and 75 mM magnesium chloride in ADBI.
# • 1. Add 10 μl of ADBI to a microcentrifuge tube. • 2. Add 10 μl of Casein Kinase 1, active (100-500 ng). • 3. Add 10 μl (250 μM) Casein Kinase 1 Substrate Peptide. • 4. Add 10 μl of diluted [γ-^32P]ATP mixture. • 5. Incubate for 10 minutes at in a shaking incubator at 30° C. • 6. Transfer 25 μl onto the center of a 2 cm×2 cm P81 paper. • 7. Wash the assay squares three times with 0.75% phosphoric acid. • 8. Wash the assay squares once with acetone. • 9. Transfer the assay squares to a scintillation vial and add 5 ml scintillation cocktail. • 10. Read in scintillation counter. Compare cpm of enzyme samples to cpm of control samples that contain no enzyme (background control).
# [1] = kinase panel, 10 μM ATP, read-out: JNK3 IC50
# [2] = read-out: MAPK10 Inhibition (IC50)
# T1 sequence (P53779 39-464): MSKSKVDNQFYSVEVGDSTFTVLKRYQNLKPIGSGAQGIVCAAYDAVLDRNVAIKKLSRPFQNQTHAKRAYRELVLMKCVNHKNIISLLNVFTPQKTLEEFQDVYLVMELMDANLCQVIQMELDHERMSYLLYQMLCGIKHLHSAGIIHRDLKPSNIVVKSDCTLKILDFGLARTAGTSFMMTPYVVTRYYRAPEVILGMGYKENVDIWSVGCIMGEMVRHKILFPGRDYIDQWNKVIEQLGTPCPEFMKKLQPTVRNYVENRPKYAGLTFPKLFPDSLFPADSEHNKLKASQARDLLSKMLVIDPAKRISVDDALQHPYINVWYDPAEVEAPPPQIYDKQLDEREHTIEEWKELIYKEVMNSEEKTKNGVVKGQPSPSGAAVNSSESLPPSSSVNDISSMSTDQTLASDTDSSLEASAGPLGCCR
# Sequence of Cdk1 (P06493 whole entry, species assumed): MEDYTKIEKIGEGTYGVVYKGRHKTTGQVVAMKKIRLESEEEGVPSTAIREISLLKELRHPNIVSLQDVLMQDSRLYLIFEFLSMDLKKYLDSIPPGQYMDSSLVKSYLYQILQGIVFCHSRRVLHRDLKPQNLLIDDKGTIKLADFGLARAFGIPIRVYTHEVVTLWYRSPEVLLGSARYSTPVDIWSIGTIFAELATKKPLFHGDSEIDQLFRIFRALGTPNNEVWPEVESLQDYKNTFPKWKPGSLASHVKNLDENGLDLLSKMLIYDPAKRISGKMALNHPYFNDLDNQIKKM
# Sequence of Cdk1 (P14635 whole entry partner, species assumed): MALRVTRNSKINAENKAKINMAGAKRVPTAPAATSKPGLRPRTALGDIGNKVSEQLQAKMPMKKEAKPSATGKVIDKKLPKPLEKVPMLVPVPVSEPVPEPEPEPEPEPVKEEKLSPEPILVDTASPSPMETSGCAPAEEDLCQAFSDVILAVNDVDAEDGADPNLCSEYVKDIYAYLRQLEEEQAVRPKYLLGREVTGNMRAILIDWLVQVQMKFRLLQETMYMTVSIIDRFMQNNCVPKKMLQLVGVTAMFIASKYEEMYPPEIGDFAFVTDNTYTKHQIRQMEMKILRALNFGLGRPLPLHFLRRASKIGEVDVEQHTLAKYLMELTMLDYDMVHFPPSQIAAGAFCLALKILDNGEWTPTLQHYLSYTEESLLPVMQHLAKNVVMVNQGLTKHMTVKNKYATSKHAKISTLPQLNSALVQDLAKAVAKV
# T2 sequence (P40233 1-298 limits assumed): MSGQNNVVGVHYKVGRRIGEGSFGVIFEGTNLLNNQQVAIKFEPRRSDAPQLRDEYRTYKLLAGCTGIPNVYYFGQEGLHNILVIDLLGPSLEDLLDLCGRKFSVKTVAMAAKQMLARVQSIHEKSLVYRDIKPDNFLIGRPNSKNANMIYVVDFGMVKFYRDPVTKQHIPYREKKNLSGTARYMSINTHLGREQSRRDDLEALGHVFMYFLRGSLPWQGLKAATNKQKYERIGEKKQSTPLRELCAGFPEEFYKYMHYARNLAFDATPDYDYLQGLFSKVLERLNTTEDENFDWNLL
SMILES,RR (relative resistance) HT29/mit vs HT29 (HT29/mit),"IC50 (HT29/mit; Homo sapiens, HT-29, 72 h, SRB)",IC50 (JNK3; [1]),IC50 (JNK3; [2]),cell cycle arrest (cell cycle),IC50 (normal cells),IC50 (Cdk1),solubility (Aqueous solubility),Solution stability (Solution stability),"IC50 (Casein Kinase 1 (yeast); CK1 IC50 (A37), kinase panel, 10 μM ATP)","IC50 (Casein Kinase 1 (yeast); CSNK1A1 (CK1) Inhibition (IC50), A37, S. pombe CK1 (*))"
"COCCN1CCN(Cc2ccc(-c3n[nH]c4c3C(=O)c3c(NC(=O)NN5CCOCC5)cccc3-4)cc2)CC1 [Compound B16, N-[3-(4-{[4-(2-methoxyethyl)piperazinyl]methyl}phenyl)-4-oxoindeno[2,3-d]pyrazol-5-yl](morpholin-4-ylamino)carboxamide dihydrochloride]",22.1,1700 nM,< 100 nM,< 50 nM,predominantly G1 arrest,10.9 µM,< 5 nM,–,–,–,–
CC(C)N1CCN(C(=O)COc2ccc(-c3n[nH]c4c3C(=O)c3c(NC(=O)NN5CCOCC5)cccc3-4)cc2)CC1 [Compound A37],–,–,10 to 100 nM,< 50 nM,predominantly G1 arrest,–,< 50 nM,15 to 20 mg/mL,> 1 mo.,< 3 nM,< 5 nM
